2 molecules from patent EP0433074B1, “Method for treating cardiac malfunction” (THE GENERAL HOSPITAL CORPORATION, priority 1989, dated 1991) can be followed below.

For data set [1], the system named is neonatal rat cardiac myocytes. Put plainly: ⁸⁶Rb⁺ influx (Na⁺ pump activity) in cultured cardiac cells. The format is cell-based. To be noted: ouabain 5 mM, 20 min preincubation. Here is the method: Na⁺ pump activity was estimated in the cultured cardiac cells as the difference in ⁸⁶Rb⁺ uptake observed in the absence and presence of 5 mM ouabain, following the method of Panet et al (Panet, R., et al., J. Memb. Biol., 70:165-169 (1982)). To insure saturation binding, myocytes were preincubated for 20 minutes with HIF (2 unit/ml) or ouabain (5 mM) or both prior to addition of ⁸⁶Rb⁺ to run the 10 minute flux. Myocyte monolayers were washed with HEPES buffer solution (final concentrations, mM: NaCl 150, RbCl 5, HEPES-Tris 10 (pH7.0) , CaCl₂ 1, MgCl₂ 5, glucose 10), and the uptake initiated by covering over with 0.5 ml of same solution pre-warmed to 37°C and containing 2 uCi ⁸⁶RbCl. […] The cells were lysed with 0.6 ml of 0.1 N NaOH containing 0.1% (w/v) sodium dodecylsulfate, and the radioactivity counted in Instagel (Packard) scintillation medium.
The concentration dependence of HIF inhibition was determined by preincubating cells with HIF at 0.5 units/ml, 0.8 units/ml, 1 unit/ml, 2 units/ml and 4 units/ml concentration for 20 min. ⁸⁶RbCl (2 uCi/well) was then added to run the flux.

In data set [2] the test system is cultured cardiac myocytes. Put plainly: Cytosolic free Ca²⁺ measured with fura-2 in cultured cardiac myocytes. The format is cell-based, rat. The settings on record: ouabain 10^-6 M, steady state, control 138±3. Here is the method: Myocardial cells were isolated from ventrical fragments of the hearts of 1-day old Sprague-Dawley rats by serial trypsinizations in a Ca²⁺ and Mg²⁺-free Hanks Buffered Salt Solution (HBSS) as previously described (Yagev, S., et al., In Vitro, 20:893-898 (1984)). Trypsinized cells were decanted into HamF10 medium containing 20% serum and antibiotics and centrifuged at 1000 r.p.m. for 10 minutes. The cell pellet was resuspended in HamF10 medium containing fetal calf serum and 10% horse serum with 0.1% penicillin-streptomycin, and diluted to a concentration of 5 x 10⁵ cells/ml. For measurements of cytosolic free calcium concentration ([Ca²⁺]i), the cells were plated on rectangular glass coverslips (13 x 30 mm) and for measurements of cell contractility, plated on circular glass coverslips (12 mm), and both types of coverslips placed inside petri dishes. […]
Changes in [Ca²⁺] i were detected using the fluorescent probe, fura-2 (Grynkiewicz, G., et al., J. Biol. Chem., 260:3440-3450 (1985)). […] The fluorescence was continuously recorded using a PTI DeltaScan 1 spectrofluorometer. […] Values of [Ca²⁺]i were calculated from the ratio R = F₃₄₀/F₃₈₀ [formula] […] Rmax and Rmin were determined in separate experiments using digitonin to equilibrate [Ca²⁺]i with ambient [Ca²⁺] […] Background autofluorescence was measured in unloaded cells and substracted from all measurements.

The subject of another data set is cardiac myocytes. As to the kind of experiment: Myocyte contractility (amplitude of systolic motion, beating frequency), phase contrast video motion detector. The format is cell-based, rat. Here is the method:
In general, the amplitude of contraction (i.e., degree of positive inotropy) was measured in single, beating myocytes as the amplitude of systolic motion (ASM) using a phase contrast video motion detector system. The same detector system was used to measure toxicity, which is evidenced as a decrease in ASM, a change in the position of maximal relaxation (MR), and an increase in beating frequency.
Myocardial cells were isolated from ventrical fragments of the hearts of 1-day old Sprague-Dawley rats by serial trypsinizations in a Ca²⁺ and Mg²⁺-free Hanks Buffered Salt Solution (HBSS) as previously described (Yagev, S., et al., In Vitro, 20:893-898 (1984)). Trypsinized cells were decanted into HamF10 medium containing 20% serum and antibiotics and centrifuged at 1000 r.p.m. for 10 minutes. The cell pellet was resuspended in HamF10 medium containing fetal calf serum and 10% horse serum with 0.1% penicillin-streptomycin, and diluted to a concentration of 5 x 10⁵ cells/ml. For measurements of cytosolic free calcium concentration ([Ca²⁺]i), the cells were plated on rectangular glass coverslips (13 x 30 mm) and for measurements of cell contractility, plated on circular glass coverslips (12 mm), and both types of coverslips placed inside petri dishes. For measurements of ⁸⁶Rb⁺ uptake cells were plated in petri dishes (1 - 1.5 x 10⁶ cells/35mm dish). All cultures were incubated in humidified 5% CO₂, 95% air at 37°C.
Contractility, determined as amplitude of systolic cell motion (ASM), and beating frequency were measured in individual cells using a phase contrast microscope video motion detector system according to the method of Barry, et al. (Barry, W.H., et al., Circ. Res., 56:231-241 (1985)). A glass coverslip with attached cultured myocytes was placed in a chamber provided with inlet and exit ports for medium perfusion. The chamber was enclosed in a Lucite box at 37°C and placed on the stage of an inverted phase contrast microscope. The cells were covered with 1 ml medium containing HIF or ouabain. During continuous perfusion, medium bathing a cell in the center of a coverslip exchanged with a time constant of 15 seconds at a flow rate of 0.96 ml/minutes. Image was magnified using a 40x objective, and motion monitored by a low-light-level TV camera attached to the microscope and calibrated with 262 raster lines. […] The analog voltage output from the motion detector is filtered at low pass filter and calibrated to indicate actual um of motion, and the derivative is obtained electronically and recorded as velocity of motion in um/sec. […] The changes in contractility induced by ouabain or HIF were calculated in comparison with the contractility of the same cells before addition of ouabain or HIF.

Data set [3] has as its system rat abdominal aortic rings. Put plainly: Vascular tension in isolated aortic rings. Also noted: species or system Sprague-Dawley rats. The settings on record: KCl 20 mM; above resting tension of 1.5 g. Here is the method: Experiments were conducted to determine the vasoconstrictive properties of HIF. The protocol for these experiments is described in greater detail in Example V. In general, Sprague-Dawley rats were anesthetized and the abdominal aorta surgically removed. 2 mm vascular rings were attached to a force transducer and bathed in buffer, and tension adjusted to 1.5 g. Tissue viability was documented and vasoconstrictive responses calibrated using known vasoconstrictors such as potassium chloride and norepinephrine. Blood vessels thus prepared were then tested with varing doses of HIF.
Sprague-Dawley rats weighing 250-350 grams were anesthetized with pentobarbital intraperitoneally, the abdominal aorta rapidly excised and dissected free of all loose connective tissue in cold Krebs-Henseleit bicarbonate buffer of the following composition, mM: NaCl, 118.3; KCl, 4.7; MgSo₄, 1.2; KH₂PO₄, 1.2; CaCl₂, 2.5; NaHCO₃, 25.0; Na-EDTA, 0.016; and glucose, 11.1. 2-3 mm (length) vascular rings were excised, attached to a force transducer and bathed in a water jacketed (37°C) organ chamber containing 5 ml of the above buffer gassed with 95% O₂ and 5% CO₂. […] force measurements were obtained with a Grass force displacement transducer attached to a Grass 79D polygraph DC amplifier, and recorded with a two-channel Kipp Zonen recorder. […]

As to `C[C@@H]1O[C@@H](O[C@H]2C[C@@H](O)[C@]3(CO)[C@H]4[C@H](O)C[C@]5(C)[C@@H](C6=CC(=O)OC6)CC[C@]5(O)[C@@H]4CC[C@]3(O)C2)[C@H](O)[C@H](O)[C@H]1O` [ouabain], in data set [1] (Rattus norvegicus, read-out: decrease of total ⁸⁶Rb⁺ uptake), the inhibition at 5000 µM stood at 74%. Also, the “total ⁸⁶Rb⁺ uptake” value in data set [1] (10 min flux, control 810 nmol/mg protein) is on record as 210 nmol/mg. The “[Ca²⁺]i” value in data set [2] and in data set [2] (listed as Ouabain) was 287 ± 15 nM throughout. The activation at 0.5 µM in the data set on cardiac myocytes (Rattus norvegicus, ouabain 5x10^-7 M, read-out: ASM, % increase) came out at 41%. Also, in the data set on cardiac myocytes (Rattus norvegicus, ouabain 5x10^-7 M, read-out: Rate, % decrease), the inhibition at 0.5 µM turned out to be 23 ± 2%. Besides, the “toxicity on contracting myocytes (decrease in ASM, elevation in position of MR, increase in beating frequency)” value in the data set with cardiac myocytes (ouabain 1 uM) is on record as “toxic range”. Also, the “ASM, % increase” value in the data set on cardiac myocytes (ouabain 5x10^-7 M, listed as Ou) is reported as 41±3%.

On to `[Cl-].[K+]` [KCl, potassium chloride], for which the “Change in Tension in Rat Aorta, % increase” value in data set [3] was determined as 20%.
